Laboratory results from publication PMC12396291, “DNA-encoded library screening uncovers potent DNMT2 inhibitors targeting a cryptic allosteric binding site” (iScience, 2025).
Entries after “also recorded” stand apart in the source; their conditions may differ.

Tests used:
DNMT2 = target: T1, DNMT2 (Homo sapiens, UniProt O14717); experiment: MST displacement assay with fluorescent FTAD probe; assay type: binding; design: Fnorm (MST screening): unit not given here; conditions: ligand 100 μM, FTAD probe
T1 construct: Recombinant human DNMT2 (full-length); His-tag; made in house; host or cells: E. coli
T1 sequence (O14717 1-391): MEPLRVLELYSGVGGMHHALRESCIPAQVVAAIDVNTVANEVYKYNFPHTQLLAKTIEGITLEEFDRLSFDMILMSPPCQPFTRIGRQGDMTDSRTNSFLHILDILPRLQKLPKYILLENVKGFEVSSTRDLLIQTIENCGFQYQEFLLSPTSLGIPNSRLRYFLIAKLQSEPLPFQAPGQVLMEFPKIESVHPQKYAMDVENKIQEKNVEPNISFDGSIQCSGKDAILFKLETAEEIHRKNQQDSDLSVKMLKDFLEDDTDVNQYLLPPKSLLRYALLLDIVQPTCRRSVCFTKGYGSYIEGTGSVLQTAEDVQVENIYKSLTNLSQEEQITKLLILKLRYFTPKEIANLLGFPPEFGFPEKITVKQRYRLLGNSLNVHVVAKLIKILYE
Experimental: Screening for ligand binding and evaluation of dose-response affinity profiles was performed via microscale thermophoresis (MST) as described previously.[42] The measurements were conducted with a Nanotemper Technologies Monolith NT.115 device. All samples were measured in Monolith standard capillaries at 25 °C. The acquisition mode was set to “Nano-Blue” with an excitation power of 30% and a medium MST power, while the system was controlled using the software MO.Control (version 1.6.1) and for evaluation MO.Affinity Analysis (version 2.3) was used. The samples contained 2 μM DNMT2, 100 nM FTAD (5-FAM-triazolyl-adenosyl-Dab) probe, and 1.3% DMSO in MST buffer (50 mM HEPES, 150 mM NaCl, 1 mM dithiothreitol (DTT), 0.1% PEG-8000, 0.05% polysorbate-20, pH 7.4).[42] All compounds were employed at a final concentration of 100 μM for the initial ligand screening.

[1] = Parallel artificial membrane permeation assay (PAMPA); assay type: in vitro ADME; conditions: 7 h incubation, duplicates
Experimental: To determine the passive permeability of selected DNMT2 ligands, a parallel artificial membrane permeation assay (PAMPA) was performed as described previously.[68] The experiment was performed in duplicates with Sigma-Aldrich MAIPNTR10 donor plates with 5 μL of an artificial membrane (1% w/v L-α-phosphatidylcholine in n-dodecane) per well. After incubation for 7 h, the acceptor solutions were evaluated by LC/MS (HP Agilent 1100 Series). The peak areas in the UV chromatogram (λ = 210 nm) were used to calculate the areas under the curve (AUCs).

Fnorm (% displ.): FTAD displacement (DNMT2) | Fnorm (MST screening) (DNMT2) | Structure (SMILES) | Papp (PAMPA) [1]
46% | 907.7 | CCc1ccc(C(=O)NCC2(C(=O)N[C@@H](CC(=O)NCC(=O)O)Cc3c[nH]c4ccccc34)CC2)cc1 [Compound 9] | 
24% | 891.2 | Cc1ccc(C(=O)NCC2(C(=O)N[C@@H](CC(=O)NCC(N)=O)Cc3ccccc3)CC2)cc1 [Compound 11] | 
23% | 890.4 | CCCc1ccc(C(=O)NCC2(C(=O)N[C@@H](CC(=O)NCC(N)=O)Cc3ccccc3)CC2)cc1 [Compound 12] | 
32% | 897.7 | COc1ccc(C(=O)NCC2(C(=O)N[C@@H](CC(=O)NCC(N)=O)Cc3ccccc3)CC2)cc1 [Compound 13] | 
 |  | CCc1ccc(C(=O)NCC2(C(=O)N[C@@H](CC(=O)NCC(N)=O)Cc3ccccc3)CC2)cc1 [Compound 14] | failed to pass through the artificial membrane; also recorded: below detection limit
5% | 862.9 | CCc1ccc(C(=O)NCC2(C(=O)N[C@@H](CC(=O)NCC(N)=O)Cc3ccc(O)cc3)CC2)cc1 [Compound 15] | 
71% | 924.6 | CCc1ccc(C(=O)NCC2(C(=O)N[C@@H](CC(=O)NCC(N)=O)Cc3ccc(Br)cc3)CC2)cc1 [Compound 17] | 
7% | 868.2 | NC(=O)CNC(=O)C[C@@H](Cc1ccccc1)NC(=O)C1(CNC(=O)c2ccccc2)CC1 [Compound 18] | 
8% | 871.4 | C#Cc1ccc(C(=O)NCC2(C(=O)N[C@@H](CC(=O)NCC(N)=O)Cc3ccccc3)CC2)cc1 [Compound 19] | 
11% | 876.5 | NC(=O)CNC(=O)C[C@@H](Cc1ccccc1)NC(=O)C1(CNC(=O)c2ccc(C3(C(F)(F)F)N=N3)cc2)CC1 [Compound 20] | 
5% | 862.4 | CCc1ccc(C(=O)NCC2(C(=O)N[C@@H](CC(=O)NCC(N)=O)Cc3ccccc3)CC2)c(C)c1 [Compound 21] | 
5% | 864.4 | NC(=O)CNC(=O)C[C@@H](Cc1ccccc1)NC(=O)C1(CNC(=O)C2CCCCC2)CC1 [Compound 22] | 
5% | 864.4 | CC(=O)NCC1(C(=O)N[C@@H](CC(=O)NCC(N)=O)Cc2ccccc2)CC1 [Compound 23] | 
4% | 860.8 | CCc1ccc(C(=O)NC[C@H](N)C(=O)N[C@@H](CC(=O)NCC(N)=O)Cc2c[nH]c3ccccc23)cc1 [Compound 24] | 
3% | 855.5 | CCc1ccc(C(=O)NC[C@H](C)C(=O)N[C@@H](CC(=O)NCC(N)=O)Cc2c[nH]c3ccccc23)cc1 [Compound 25] | 
5% | 861.9 | CCc1ccc(C(=O)NC2(C(=O)N[C@@H](CC(=O)NCC(N)=O)Cc3c[nH]c4ccccc34)CC2)cc1 [Compound 26] | 
5% | 863.8 | CCc1ccc(C(=O)NCCC(=O)N[C@@H](CC(=O)NCC(N)=O)Cc2c[nH]c3ccccc23)cc1 [Compound 27] | 
8% | 871.9 | CCc1ccc(C(=O)NCC2(C(=O)N[C@@H](CC(=O)NCC(N)=O)Cc3ccccc3)C[C@H]2C(F)(F)F)cc1 (stereo partly shown) [Compound 28] | 

Fnorm (% displ.): FTAD displacement (DNMT2) | Fnorm (MST screening) (DNMT2) | Structure (SMILES) | Papp (PAMPA) [1]
9% | 872.3 | CCc1ccc(C(=O)NCC2(C(=O)N[C@@H](CC(=O)NCC(N)=O)Cc3ccccc3)C[C@H]2S(C)(=O)=O)cc1 (stereo partly shown) [Compound 29] | 
4% | 857.0 | CCc1ccc(C(=O)NCC2(C(=O)N[C@H](CC(=O)NCC(N)=O)Cc3c[nH]c4ccccc34)CC2)cc1 [Compound 31] | 
3% | 856.7 | CCc1ccc(C(=O)NCC2(C(=O)N[C@@H](CC(=O)NCC(N)=O)Cc3csc4ccccc34)CC2)cc1 [Compound 32] | 
18% | 885.6 | CCc1ccc(C(=O)NCC2(C(=O)N[C@@H](CC(=O)NCC(N)=O)Cc3ccc(I)cc3)CC2)cc1 [Compound 33] | 
5% | 861.5 | CCc1ccc(C(=O)NCC2(C(=O)N3Cc4ccccc4C[C@@H]3CC(=O)NCC(N)=O)CC2)cc1 [Compound 35] | 
5% | 861.7 | CCc1ccc(C(=O)NCC2(C(=O)N[C@@H](CC(=O)NCC(N)=O)Cc3ccc4ccccc4c3)CC2)cc1 [Compound 36] | 
4% | 858.6 | CCc1ccc(C(=O)NCC2(C(=O)N[C@@H](CC(=O)NCC(N)=O)C(=O)O)CC2)cc1 [Compound 37] | 
4% | 859.4 | CCc1ccc(C(=O)NCC2(C(=O)NCCC(=O)NCC(N)=O)CC2)cc1 [Compound 38] | 
8% | 871.4 | CCc1ccc(C(=O)NCC2(C(=O)N[C@@H](CC(=O)N[C@@H](C)C(N)=O)Cc3ccccc3)CC2)cc1 [Compound 39] | 
8% | 870.1 | CCc1ccc(C(=O)NCC2(C(=O)N[C@@H](CC(=O)N[C@H](C)C(N)=O)Cc3ccccc3)CC2)cc1 [Compound 40] | 
6% | 865.3 | CCc1ccc(C(=O)NCC2(C(=O)N[C@@H](CC(=O)N[C@@H](C(N)=O)[C@@H](C)O)Cc3c[nH]c4ccccc34)CC2)cc1 [Compound 41] | 
4% | 858.8 | CCc1ccc(C(=O)NCC2(C(=O)N[C@@H](CC(=O)N[C@@H](Cc3ccccc3)C(N)=O)Cc3ccccc3)CC2)cc1 [Compound 42] | 
10% | 874.7 | CCc1ccc(C(=O)NCC2(C(=O)N[C@@H](CC(=O)NCCC(N)=O)Cc3ccccc3)CC2)cc1 [Compound 43] | 
7% | 869.7 | CCc1ccc(C(=O)N(C)CC2(C(=O)NC(CC(=O)NCC(N)=O)Cc3ccccc3)CC2)cc1 (stereo not shown) [Compound 44] | 
5% | 862.6 | CCc1ccc(C(=O)NCC2(C(=O)N(C)[C@@H](CC(=O)NCC(N)=O)Cc3ccccc3)CC2)cc1 [Compound 45] | 
7% | 868.4 | CCc1ccc(C(=O)NCC2(C(=O)N[C@@H](CC(=O)N(C)CC(N)=O)Cc3ccccc3)CC2)cc1 [Compound 46] | 
27% | 894.1 | CCc1ccc(C(=O)NCC2(C(=O)N[C@@H](CC(=O)NCC(=O)NCCOCCOCCOCCOC)Cc3ccccc3)CC2)cc1 [Compound 48] | 
 |  | CCc1ccc(C(=O)NCC2(C(=O)N[C@@H](CC(=O)NCC(=O)O)Cc3ccccc3)CC2)cc1 [Compound 54] | failed to pass through the artificial membrane; also recorded: below detection limit
